Blank lines part the entries; values can stand above or below the molecule they belong to.
Legend:
[1] = test system: recurrent and refractory triple-negative breast cancer; settings: patients; cited from earlier work
small cell lung cancer = settings: patients, phase II; cited from earlier work
Trop2 antigen [2] = molecular target: T1, Trop2 antigen (human, UniProt P09758 27-274, limits assumed); experiment: Biacore SPR; antibody amine-coupled to CM5 chip, Trop2 antigen as analyte
T1 construct: also called human trophoblast cell surface antigen 2; tumor-associated calcium signal transducer 2
T1 sequence (looked up): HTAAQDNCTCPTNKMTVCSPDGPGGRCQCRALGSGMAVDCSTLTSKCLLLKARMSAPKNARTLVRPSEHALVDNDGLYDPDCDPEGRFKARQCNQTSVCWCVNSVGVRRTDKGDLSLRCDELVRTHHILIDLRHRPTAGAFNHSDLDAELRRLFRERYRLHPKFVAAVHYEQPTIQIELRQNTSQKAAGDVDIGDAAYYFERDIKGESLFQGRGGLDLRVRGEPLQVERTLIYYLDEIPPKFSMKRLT
Description: Amino of an anti-Trop2 antibody was coupled to a CM5 chip, with pH of 5.0, an antibody concentration of 10 μg/mL, sample injection time of 60 s, and flow rate of 10 μL/min, and a coupling amount of 378.6 RU. […] (FIG. 6)

Trop2 antigen [3] = molecular target: T1, Trop2 antigen; experiment: indirect ELISA, Trop2 antigen coated at 0.4 µg/ml
Description: (§1) A Trop2 antigen was diluted to three dilutions (0.1 μg/mL, 0.2 μg/mL, and 0.4 μg/mL) and coated onto ELISA plates. […] An antigen-antibody reaction curve was determined using an indirect ELISA. […] The unit of Ka is M⁻¹. In this formula, [Ab] represents the antibody concentration corresponding to A=½Amax when the antigen concentration is [Ag]; [Ab]t represents the antibody concentration corresponding to A=½Amax when the antigen concentration is [Ag]t; [Ag] and [Ag]t represent the antigen concentrations; and n is the dilution factor between [Ag] and [Ag]t. (FIG. 7)

Trop2 antigen [4] = molecular target: T1, Trop2 antigen; experiment: indirect ELISA, Trop2 antigen coated at 0.2 µg/ml
Description: as §1

Trop2 antigen [5] = molecular target: T1, Trop2 antigen; experiment: indirect ELISA on plates coated with Trop2 antigen at 0.1, 0.2 and 0.4 µg/mL; Ka calculated from the antibody concentrations at half-maximal binding
Description: as §1

Trop2 antigen [6] = molecular target: T1, Trop2 antigen; experiment: indirect ELISA, Trop2 antigen coated at 0.1 µg/ml
Description: as §1

Molecule: IMMU-132
- average time from administration to taking effect [1]: 1.9 months
- clinical effective rate [1]: 46%
- objective remission rate [1]: 30%
- overall survival time [1]: 16.6 months
- progression-free survival time [1]: 6 months
- clinical effective rate (small cell lung cancer): 43%
- median overall survival time (small cell lung cancer): 9.5 months
- median progression-free survival time (small cell lung cancer): 5.2 months
- median remission time (small cell lung cancer): 6 months
- objective remission rate (small cell lung cancer): 19%

- Kd (Trop2 antigen [2]): 0.484 nM
- koff (Trop2 antigen [2]): 0.00073 s⁻¹
- kon (Trop2 antigen [2]): 1.51e+06 M⁻¹ s⁻¹
- EC50 (read off the curve) (Trop2 antigen [3]): ~5 ng/mL
- EC50 (read off the curve) (Trop2 antigen [4]): ~5 ng/mL
- Ka (Trop2 antigen [5]): 3.9e+10 M⁻¹
- EC50 (read off the curve) (Trop2 antigen [6]): ~5 ng/mL
B1: anti-Trop2 monoclonal antibody IMB1636 (antibody, V domains shown)
VH: QVQLQQSGAELVRPGTSVKISCKASGYTFTNYWLGWVKQRPGHGLEWIGNIFPGGGYTNYNEKFKGKAILTADTSSSTAYMQLSSLTSEDSGVYFCAREGVMDYWGQGTTLTVSS
VL: DILLTQSPAILSVSPGERVSFSCRASQNIGTSIHWYQQRTNGFPRLLIKYASESISGIPSRFSGSGSGTDFTLSINSVESEDIADYYCQQSYSWPFTFGSGTKLEIK
notes: also called mouse-derived anti-Trop2 monoclonal antibody; anti-Trop2 antibody

Reference: patent publication US20250163176A1, “MONOCLONAL ANTIBODY AGAINST TROP2 AND USE THEREOF” (INSTITUTE OF MEDICAL BIOTECHNOLOGY, CHINESE ACADEMY OF …, priority 2022, published 2025)
